“And” between values parts separate entries of the source, which are not always exact repeats. Identical values can stand only once.

One data set relates to KG-1 cells. The data set is described as follows: KG-1 Cell Bioassay (MTT, cell growth stimulation). It counts as cell-based, human. As for the experimental part:
Briefly, cultures of about 1×10^4 cells were incubated with dilutions of the various proteins in Iscove's modified Dulbecco's medium at 37° C. for 6 days. The tetrazolium salt MTT (3-[4,5-Dimethylthiazol-2-yl]-2,5-diphenyltetrazolium bromide; Thiazolyl blue) was then added at a final concentration of 0.5 mg/ml, and incubation was continued for another 4 hours. MTT is cleaved by mitochondrial dehydrogenase enzymes to produce a colored reaction product, formazan, the quantity of which is directly related to LOG2 cell concentration.

A short description of data set [1]: Analytical isoelectric focusing. It counts as physicochemical.

Consider “GM-CSF: Unoxidized recombinant mature human GM-CSF produced in E. coli; designated V0 when isolated from the secretory expression extract”, for which, in the data set with KG-1 cells (KG-1 cells, 6 days, MTT, titer from dilution producing 50% maximal cell growth stimulation vs standard GM-CSF, MET-O and V variants analysed at different times), the “Biological Activity (Units/mg × 10^-9)” value is 2.9 Units/mg × 10^-9 and 5.3 Units/mg × 10^-9. In addition, the “Biological Activity (% GM-CSF Activity)” value in the data set with KG-1 cells (percentage of the unoxidized GM-CSF specific bioactivity of the same run) is recorded as 100%. Besides, the pI entry in data set [1] is “about 5.3”.

Values taken from US5358707A, “Oxidized variants of GM-CSF” (Schering Corporation, priority 1992, dated 1994).
